These results are taken from publication PMC4155488 (Bioorganic & medicinal chemistry letters, 2014).

Assay [1] deals with hPDE4B. As to conditions: read-out: IC50 against hPDE4B; reported; cited from earlier work.
In assay [2] the target is T1, TbrPDEB1 (Trypanosoma brucei, UniProt Q8WQX9).
T1 sequence (Q8WQX9 1-930): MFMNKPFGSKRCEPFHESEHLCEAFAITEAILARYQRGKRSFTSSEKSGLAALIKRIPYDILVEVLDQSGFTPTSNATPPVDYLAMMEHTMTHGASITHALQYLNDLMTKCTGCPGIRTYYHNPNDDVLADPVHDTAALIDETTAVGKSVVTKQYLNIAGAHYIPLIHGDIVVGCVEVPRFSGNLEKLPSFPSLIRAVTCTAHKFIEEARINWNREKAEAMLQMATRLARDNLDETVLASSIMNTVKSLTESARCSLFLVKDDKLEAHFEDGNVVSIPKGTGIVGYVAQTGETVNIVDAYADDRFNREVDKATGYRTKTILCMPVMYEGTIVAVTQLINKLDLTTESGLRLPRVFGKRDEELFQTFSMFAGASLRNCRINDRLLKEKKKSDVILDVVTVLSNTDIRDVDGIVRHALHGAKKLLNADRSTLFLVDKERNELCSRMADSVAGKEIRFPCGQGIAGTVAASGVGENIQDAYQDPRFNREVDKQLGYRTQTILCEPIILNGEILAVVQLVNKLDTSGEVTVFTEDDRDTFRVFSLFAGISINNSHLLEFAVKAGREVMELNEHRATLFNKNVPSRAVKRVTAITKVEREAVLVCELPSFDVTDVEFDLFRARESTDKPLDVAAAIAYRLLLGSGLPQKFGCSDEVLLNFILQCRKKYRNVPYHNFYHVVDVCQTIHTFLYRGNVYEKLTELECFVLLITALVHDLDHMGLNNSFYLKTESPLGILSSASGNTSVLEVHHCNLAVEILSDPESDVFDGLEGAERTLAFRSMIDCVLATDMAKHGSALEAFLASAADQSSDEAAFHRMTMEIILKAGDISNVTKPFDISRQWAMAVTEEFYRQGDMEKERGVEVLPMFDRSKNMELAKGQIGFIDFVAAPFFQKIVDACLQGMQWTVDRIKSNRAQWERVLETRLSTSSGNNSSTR
Conditions: result in words; cited from earlier work.

Assay [3] concerns the target hPDE4. As to the kind of experiment: hPDE4 enzyme inhibition. It counts as biochemical, human. As to conditions: read-out: IC50 against hPDE4.
Assay [4] has as its target T1, TbrPDEB1. As to the kind of experiment: TbrPDEB1 enzyme inhibition. As to conditions: for fold loss in potency (TbrPDEB1): relative to 12b (linker of four methylene groups). It counts as biochemical.

`COc1ccc([C@]2(C#N)CC[C@@H](C(=O)O)CC2)cc1OC1CCCC1` [Compound 1, cilomilast]: the IC50 – broadly, the concentration at which inhibition is half-maximal – in assay [1] was 84 nM.

`O=C(Nc1c(Cl)cncc1Cl)c1ccc(OC(F)F)c(OCC2CC2)c1` [Compound 4, roflumilast]: in assay [2], the TbrPDEB1 activity entry is “completely inactive”.

Consider `COc1ccc([C@]2(C#N)CC[C@@H](C(=O)O)CC2)cc1OCc1ccccc1` [Compound 7], for which the IC50 in assay [3] is 540 nM.

Turning to `COc1ccc([C@]2(C#N)CC[C@@H](C(=O)O)CC2)cc1OCCCCOc1ccccc1` [Compound 12b], in assay [4] (ratio of TbrPDEB1 IC50 versus compound 1), the “times more active than 1 against TbrPDEB1” value amounted to 17 fold.

In the case of `COc1ccc([C@]2(C#N)CC[C@@H](C(=O)O)CC2)cc1OCCCOc1ccccc1` [Compound 12c], the “fold loss in potency (TbrPDEB1)” value in assay [4] is recorded as ~ 10 fold.

For `COc1ccc([C@]2(C#N)CC[C@@H](C(=O)O)CC2)cc1OCCCCCOc1ccccc1` [Compound 12d], in assay [4], the “fold loss in potency (TbrPDEB1)” value is reported as ~ 10 fold.
